The record followed here is ChEMBL document CHEMBL3352654, “Synthesis, biological evaluation and SAR analysis of O-alkylated analogs of quercetin for anticancer” (Bioorg Med Chem Lett, 2014).

Common to all, as to format: functional, cell-based
Experiment [1] in a line: Anticancer activity against human […] cells by HTS assay.
Experiment [2] deals with M14. As to the kind of experiment: Anticancer activity against human M14 cells by HTS assay.
In experiment [3] the test system is NCI-H157. As to the kind of experiment: Anticancer activity against human NCI-H157 cells by HTS assay.
Experiment [4] is described as follows: Anticancer activity against human LOXIMVI cells by HTS assay. To be noted: LOX IMVI.
A short description of experiment [5]: Anticancer activity against human NCI-H1944 cells by HTS assay.
Experiment [6] can be described thus: Anticancer activity against human H1299 cells by HTS assay. Particulars: NCI-H1299.
Experiment [7] can be described thus: Anticancer activity against human M4E cells by HTS assay.
Experiment [8] can be described thus: Anticancer activity against human H460 cells by HTS assay. To be noted: NCI-H460.
The test system of experiment [9] is A549. Put plainly: Anticancer activity against human A549 cells by HTS assay.
Experiment [10] concerns HeLa. As to the kind of experiment: Anticancer activity against human HeLa cells by HTS assay.
The subject of experiment [11] is NCI-H1792. As to the kind of experiment: Anticancer activity against human NCI-H1792 cells by HTS assay.
A short description of experiment [12]: Anticancer activity against human SKBR cells by HTS assay.
In experiment [13] the test system is NCI-H522. As to the kind of experiment: Anticancer activity against human NCI-H522 cells by HTS assay.
In experiment [14] the test system is HOP-62. As to the kind of experiment: Anticancer activity against human HOP62 cells by HTS assay.
Experiment [15] is described as follows: Anticancer activity against human Calu1 cells by HTS assay. Particulars: Calu-1.
Experiment [16] in a line: Anticancer activity against human 292G cells by HTS assay.

Structures are written as SMILES.

In the case of `CCOc1cc(O)c2c(=O)c(OCC)c(-c3ccc(OCC)c(OCC)c3)oc2c1`, the half-inhibitory concentration (IC50) in [1] is > 50 µM; in experiment [2] it was > 50 µM; in [3] it was > 50 µM; in experiment [4], 19.4 µM; in experiment [5], > 50 µM; in experiment [6], 24.9 µM. Also, the IC50 in [7] is 21.4 µM; in [8], 22.1 µM; in [9] it was 47.6 µM; in [10], > 50 µM; in experiment [11], > 50 µM; in experiment [12], > 50 µM. Further, the IC50 was > 50 µM in experiment [13], 44 µM in [14], > 50 µM in experiment [15] and > 50 µM in [16].

As to `CCCCOc1cc(O)c2c(=O)c(O)c(-c3ccc(OCCCC)c(O)c3)oc2c1`, the IC50 in [1] is 15.9 µM; in [2] it was 9.35 µM; in [3], 0.39 µM; in experiment [4] it was 2.36 µM; in experiment [5] it was 0.56 µM; in [6] it was 4.54 µM. Also, the IC50 in experiment [7] was found to be 6.29 µM; in experiment [8] it was 3.16 µM; in experiment [9] it was 2.06 µM; in [10] it was 0.87 µM; in experiment [11], 3.09 µM; in experiment [12], 4.39 µM. In addition, the IC50 in [13] is 35.6 µM; in experiment [14] it was 4.43 µM; in experiment [15], 6.21 µM; in [16], 17.7 µM.

On to `CCOc1cc(O)c2c(=O)c(OCC)c(-c3ccc(OCC)c(O)c3)oc2c1`, for which the IC50 in experiment [1] is > 50 µM; in [2], > 50 µM; in [3], > 50 µM; in [4] it was > 50 µM; in [5], 4.72 µM; in [6], 48.5 µM. The 50% inhibitory concentration (IC50) in experiment [7] was 18 µM; in experiment [8] it was 15.6 µM; in experiment [9] it was 22.6 µM; in experiment [10] it was 14.6 µM; in experiment [11], > 50 µM; in experiment [12] it was 6.66 µM. Also, the half-inhibitory concentration (IC50) was > 50 µM in [13], 36.3 µM in experiment [14], > 50 µM in experiment [15] and > 50 µM in experiment [16].

For the molecule `CCCOc1cc(O)c2c(=O)c(OCCC)c(-c3ccc(OCCC)c(O)c3)oc2c1`, the half-maximal inhibitory concentration (IC50) is > 50 µM in experiment [1]; 34 µM in experiment [2]; > 50 µM in experiment [3]; > 50 µM in experiment [4]; 4.75 µM in experiment [5]; 22.8 µM in [6]. Also, the IC50 in experiment [7] was 48.2 µM; in [8] it was 28.8 µM; in experiment [9], 18.6 µM; in [10], 12.9 µM; in experiment [11], > 50 µM; in experiment [12] it was 12 µM. For the same molecule, the IC50 in experiment [13] was > 50 µM; in [14], 36 µM; in experiment [15], > 50 µM; in experiment [16], > 50 µM.

On to `CCCCOc1cc(O)c2c(=O)c(OCCCC)c(-c3ccc(OCCCC)c(O)c3)oc2c1`, for which the concentration for half-maximal inhibition (IC50) in experiment [1], in experiment [2], in experiment [3], in experiment [4], in experiment [5] and in experiment [6] was > 50 µM each time. Besides, the IC50 is > 50 µM in [7]; > 50 µM in experiment [8]; 31.5 µM in [9]; 6.62 µM in experiment [10]; > 50 µM in experiment [11]; > 50 µM in experiment [12]. The concentration for half-maximal inhibition (IC50) in experiment [13], in experiment [14], in experiment [15] and in experiment [16] was > 50 µM throughout.

With `COc1c(-c2ccc(O)c(O)c2)oc2cc(O)cc(O)c2c1=O` [3-O-METHYLQUERCETIN], the IC50 is > 50 µM in experiment [1]; > 50 µM in [2]; 18.7 µM in [3]; > 50 µM in experiment [4]; 23.6 µM in [5]; 46.8 µM in experiment [6]. Moreover, the 50% inhibitory concentration (IC50) in experiment [7] was determined as 38.6 µM; in experiment [8], 9.91 µM; in experiment [9], 8.14 µM; in experiment [10], 6.09 µM; in experiment [11] it was 24.1 µM; in [12], 13.9 µM. For the same molecule, the half-inhibitory concentration (IC50) in experiment [13] is > 50 µM; in experiment [14] it was 35.5 µM; in [15] it was > 50 µM; in [16], 49.5 µM.

Turning to `COc1cc(O)c2c(=O)c(OC)c(-c3ccc(OC)c(O)c3)oc2c1` [AYANIN], the IC50 was > 50 µM in [1]; 37.1 µM in experiment [2]; 18.6 µM in experiment [3]; 46 µM in experiment [4]; 21.9 µM in [5]; > 50 µM in experiment [6]. Besides, the IC50 was 16.2 µM in experiment [7]; 12.8 µM in [8]; 20.8 µM in experiment [9]; 19.5 µM in [10]; > 50 µM in experiment [11]; 10.8 µM in experiment [12]. Further, the IC50 in [13] is 20.2 µM; in experiment [14], 20.1 µM; in [15], > 50 µM; in experiment [16], > 50 µM.

For the molecule `COc1cc(O)c2c(=O)c(O)c(-c3ccc(OC)c(O)c3)oc2c1` [OMBUINE], the IC50 in experiment [1] is > 50 µM; in experiment [2], 4.29 µM; in experiment [3], 3.45 µM; in experiment [4] it was > 50 µM; in experiment [5], 2.86 µM; in [6] it was 34.8 µM. The concentration for half-maximal inhibition (IC50) was found to be 30.7 µM in experiment [7]; 2.75 µM in experiment [8]; 3.07 µM in experiment [9]; 1.49 µM in [10]; 3.36 µM in experiment [11]; 8.3 µM in [12]. The IC50 is 17.4 µM in experiment [13], 12.1 µM in experiment [14], > 50 µM in experiment [15] and 40.7 µM in experiment [16].

On to `O=c1c(O)c(-c2ccc(O)c(O)c2)oc2cc(O)cc(O)c12` [QUERCETIN], for which the IC50 in experiment [1] worked out at 16.9 µM; in experiment [2], 12.8 µM; in [3], 6 µM; in experiment [4], 4.65 µM; in experiment [5], 10.2 µM; in [6] it was 13.6 µM. In addition, the IC50 in experiment [7] turned out to be 21.7 µM; in experiment [8], 9.62 µM; in [9], 6.2 µM; in experiment [10], 3.56 µM; in experiment [11], 3.85 µM; in experiment [12], 16.7 µM. Also, the IC50 was 5.77 µM in experiment [13], 7.52 µM in [14], 23.6 µM in experiment [15] and > 50 µM in experiment [16].

For the molecule `COc1cc(O)c2c(=O)c(OC)c(-c3ccc(OC)c(OC)c3)oc2c1` [RETUSIN], the IC50 was > 50 µM in experiment [1]; 0.38 µM in experiment [2]; > 50 µM in experiment [3]; 0.39 µM in [4]; > 50 µM in experiment [5]; 10.5 µM in experiment [6]. For the same molecule, the IC50 in experiment [7] was > 50 µM; in experiment [8] it was > 50 µM; in experiment [9] it was > 50 µM; in experiment [10], 46.4 µM; in experiment [11], > 50 µM; in experiment [12], > 50 µM. The half-inhibitory concentration (IC50) in [13] was > 50 µM; in experiment [14], > 50 µM; in experiment [15] it was 6.53 µM; in experiment [16], > 50 µM.

Turning to `COc1ccc(-c2oc3cc(O)cc(O)c3c(=O)c2O)cc1O` [TAMARIXETIN], the half-inhibitory concentration (IC50) in [1] was 7.57 µM; in [2] it was 14.8 µM; in experiment [3], 3.04 µM; in [4], > 50 µM; in [5] it was 3.86 µM; in [6], 22 µM. Moreover, the IC50 was determined as 19.9 µM in experiment [7]; 4.45 µM in [8]; 2.63 µM in experiment [9]; 1.81 µM in experiment [10]; 4.06 µM in experiment [11]; 7.97 µM in [12]. Besides, the IC50 in experiment [13] was > 50 µM; in [14], 9.93 µM; in experiment [15], 24.9 µM; in [16] it was 12.5 µM.
